Source: ChEMBL document CHEMBL4842336, “Synthesis and computational studies of novel fused pyrimidinones as a promising scaffold with analgesic, anti-inflammatory and COX inhibitory potential” (Eur J Med Chem, 2021)

Key:
[1] = tested on: Rattus norvegicus; assay: Analgesic activity against p-benzoquinone induced writhing in albino rat model assessed as protection rate at 28 uM/kg, ip measured after 30 mins relative to control; format: functional; conditions: 0.5 h, at 28 µmol/kg
[2] = tested on: Rattus norvegicus; assay: Analgesic activity against p-benzoquinone induced writhing in albino rat model assessed as protection rate at 28 uM/kg, ip measured after 30 mins relative to indomethacin; format: functional; conditions: 0.5 h, at 28 µmol/kg
[3] = Ulcerogenic activity in fasted albino rat assessed as incidence of ulceration at 28 uM/kg, po administered for 3 consecutive days (reference value: 0 %); format: toxicity, organism-based; conditions: in vivo, 72 h, time 3 day
[4] = tested on: Rattus norvegicus; assay: Anti-inflammatory activity in Wistar albino rat model of carragenan-induced paw edema assessed as reduction in edema thickness at 28 uM/kg, ip measured after 3 hrs by plethysmometer (reference value: 1.64 +/- 0.04 millimeter); format: functional; set-up: scale not given: the % may be the effect or the level left; conditions: at 28 µmol/kg
[5] = tested on: Rattus norvegicus; assay: Anti-inflammatory activity Wistar albino rat model of carragenan-induced paw edema assessed as inhibition of inflammation at 28 uM/kg, ip measured after 3 hrs by plethysmometer relative to control; format: functional; set-up: scale not given: the % may be the effect or the level left; conditions: at 28 µmol/kg
[6] = Ulcerogenic activity in fasted albino rat assessed as number of ulcers at 28 uM/kg, po administered for 3 consecutive days (reference value: 0 %); format: toxicity, organism-based; conditions: in vivo, 72 h, time 3 day
[7] = Ulcerogenic activity in fasted albino rat assessed as severity of ulcers at 28 uM/kg, po administered for 3 consecutive days (reference value: 0 %); format: toxicity, organism-based; conditions: in vivo, 72 h, time 3 day
[8] = molecular target: T1, Prostaglandin G/H synthase 1 (Ovis aries, UniProt P05979); assay: Inhibition of ovine COX-1 using arachidonic acid as substrate by fluorescence assay
T1 sequence (P05979 whole entry): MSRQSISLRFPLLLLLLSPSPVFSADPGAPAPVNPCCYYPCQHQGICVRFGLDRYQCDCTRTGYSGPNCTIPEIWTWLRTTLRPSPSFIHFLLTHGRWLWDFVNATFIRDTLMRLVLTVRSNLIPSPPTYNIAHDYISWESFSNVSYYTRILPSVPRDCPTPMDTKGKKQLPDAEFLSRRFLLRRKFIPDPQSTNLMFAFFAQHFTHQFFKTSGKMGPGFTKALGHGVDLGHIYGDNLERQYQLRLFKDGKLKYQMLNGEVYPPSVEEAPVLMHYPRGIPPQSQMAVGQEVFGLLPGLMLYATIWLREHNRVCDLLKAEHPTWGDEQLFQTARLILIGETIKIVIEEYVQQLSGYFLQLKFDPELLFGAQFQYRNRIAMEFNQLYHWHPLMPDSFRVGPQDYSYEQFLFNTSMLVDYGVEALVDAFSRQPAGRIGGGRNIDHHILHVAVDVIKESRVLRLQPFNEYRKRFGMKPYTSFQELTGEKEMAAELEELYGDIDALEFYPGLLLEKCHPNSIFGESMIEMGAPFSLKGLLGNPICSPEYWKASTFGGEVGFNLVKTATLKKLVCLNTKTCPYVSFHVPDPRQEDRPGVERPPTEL

[9] = tested on: Rattus norvegicus; assay: Anti-inflammatory activity in Wistar albino rat model of carragenan-induced paw edema assessed as inhibition of inflammation at 28 uM/kg, ip measured after 2 hrs by plethysmometer relative to control; format: functional
[10] = Toxicity in albino rat assessed as decrease in body weight at; conditions: in vivo, 24 h, dose <140 µM/Kg
[11] = tested on: Rattus norvegicus; assay: Anti-inflammatory activity in Wistar albino rat model of carragenan-induced paw edema assessed as reduction in edema thickness at 28 uM/kg, ip measured after 2 hrs by plethysmometer (Rvb =1.6 +/- 0.12 millimeter); format: functional
[12] = Ulcerogenic activity in fasted albino rat assessed as ulcer index at 28 uM/kg, po administered for 3 consecutive days (reference value: 0); format: toxicity, organism-based; conditions: in vivo, 72 h, time 3 day

**Q.** For `Cc1nc2sc(-c3ccc(Cl)cc3)nn2c(=O)c1CCN1CCCCC1`, which Activity [1] is on record?
**A.** Its Activity is 50%.

**Q.** What about the Activity [2] of the same compound?
**A.** The Activity was 60%.

**Q.** Which results are given for `Cc1nc2sc(-c3ccc(Cl)cc3)nn2c(=O)c1CCN1CCOCC1`?
**A.** Activity [1]: 66%; Activity [2]: 80%

**Q.** For `Cc1nc2oc(-c3ccc(Cl)cc3)nn2c(=O)c1CCN1CCOCC1`, which Activity [1] is on record?
**A.** Its Activity is 66%.

**Q.** And the Activity [2]?
**A.** The Activity was 80%.

**Q.** With `Cc1nc2oc(-c3ccccc3)nn2c(=O)c1CCN1CCOCC1` as the compound, how does the Activity [1] read?
**A.** Its Activity is 50%.

**Q.** What about the Activity [2] of the same compound?
**A.** The Activity was 60%.

**Q.** For `COc1ccc(N2CCN(CCc3c(C)nc4oc(-c5ccc(Cl)cc5)nn4c3=O)CC2)cc1`, which Activity [3] is on record?
**A.** Its Activity is 4%.

**Q.** And the Activity [4]?
**A.** The Activity was 73.12%.

**Q.** What about the Activity [5] of the same compound?
**A.** Its Activity is 91%.

**Q.** And the Activity [6]?
**A.** Its Activity is 0.8%.

**Q.** What about the Activity [7] of the same compound?
**A.** Its Activity is 1%.

**Q.** And the IC50 [8]?
**A.** Its IC50 is 350 nM.

**Q.** What about the Activity [9] of the same compound?
**A.** The Activity was 0.14 mm.

**Q.** And the Activity [1]?
**A.** Its Activity is 83%.

**Q.** And the Activity [10]?
**A.** Its Activity is “Non-Toxic”.

**Q.** And the Activity [11]?
**A.** Its Activity is 0.43 mm.

**Q.** And the Activity [2]?
**A.** Its Activity is 100%.

**Q.** And the UI [12]?
**A.** Its UI is 5.8.

**Q.** With `Cc1nc2sc(-c3ccc(Cl)cc3)nn2c(=O)c1CCN1CCN(c2ccccc2)CC1` as the compound, how does the Activity [1] read?
**A.** Its Activity is 66%.

**Q.** And the Activity [2]?
**A.** Its Activity is 60%.

**Q.** Which Activity [3] does the source give for `Cc1nc2oc(-c3ccc(Cl)cc3)nn2c(=O)c1CCN1CCN(c2ccccc2)CC1` here?
**A.** The Activity was 4%.

**Q.** What about the Activity [4] of the same compound?
**A.** The Activity was 94.75%.

**Q.** What about the Activity [5] of the same compound?
**A.** The Activity was 70.73%.

**Q.** And the Activity [6]?
**A.** The Activity was 0.6%.

**Q.** What about the Activity [7] of the same compound?
**A.** The Activity was 1%.

**Q.** What about the IC50 [8] of the same compound?
**A.** Its IC50 is 148 nM.

**Q.** And the Activity [9]?
**A.** The Activity was 0.48 mm.

**Q.** What about the Activity [1] of the same compound?
**A.** Its Activity is 83%.

**Q.** What about the Activity [10] of the same compound?
**A.** The Activity was “Non-Toxic”.

**Q.** And the Activity [11]?
**A.** The Activity was 0.08 mm.

**Q.** And the Activity [2]?
**A.** Its Activity is 100%.

**Q.** What about the UI [12] of the same compound?
**A.** The UI was 5.6.

**Q.** For `COc1ccc2c(c1)c(CC(=O)O)c(C)n2C(=O)c1ccc(Cl)cc1` [INDOMETHACIN], which Activity [3] is on record?
**A.** Its Activity is 8%.

**Q.** What about the Activity [4] of the same compound?
**A.** Its Activity is 73.29%.

**Q.** And the Activity [5]?
**A.** Its Activity is 66.46%.

**Q.** And the Activity [6]?
**A.** Its Activity is 2.6%.

**Q.** What about the Activity [7] of the same compound?
**A.** The Activity was 1.18%.

**Q.** What about the Activity [9] of the same compound?
**A.** Its Activity is 0.55 mm.

**Q.** And the Activity [1]?
**A.** Its Activity is 83%.

**Q.** What about the Activity [11] of the same compound?
**A.** Its Activity is 0.42 mm.

**Q.** What about the Activity [2] of the same compound?
**A.** Its Activity is 100%.

**Q.** And the UI [12]?
**A.** The UI was 11.78.

**Q.** With `COc1ccc(N2CCN(CCc3c(C)nc4oc(-c5ccccc5)nn4c3=O)CC2)cc1` as the compound, how does the Activity [3] read?
**A.** The Activity was 2%.

**Q.** And the Activity [4]?
**A.** The Activity was 73.12%.

**Q.** And the Activity [5]?
**A.** The Activity was 61.7%.

**Q.** And the Activity [6]?
**A.** The Activity was 0.8%.

**Q.** What about the Activity [7] of the same compound?
**A.** The Activity was 1%.

**Q.** What about the IC50 [8] of the same compound?
**A.** The IC50 was 140 nM.

**Q.** And the Activity [9]?
**A.** The Activity was 0.62 mm.

**Q.** What about the Activity [1] of the same compound?
**A.** The Activity was 100%.

**Q.** What about the Activity [10] of the same compound?
**A.** The Activity was “Non-Toxic”.

**Q.** What about the Activity [11] of the same compound?
**A.** The Activity was 0.43 mm.

**Q.** And the Activity [2]?
**A.** Its Activity is 120%.

**Q.** And the UI [12]?
**A.** The UI was 3.8.

**Q.** Which Activity [1] does the source give for `Cc1nc2oc(-c3ccccc3)nn2c(=O)c1CCN1CCN(c2ccccc2)CC1` here?
**A.** The Activity was 50%.

**Q.** And the Activity [2]?
**A.** Its Activity is 60%.

**Q.** What does the source list for `Cc1nc2oc(-c3ccc(Cl)cc3)nn2c(=O)c1CCN1CCCCC1`?
**A.** Activity [1]: 66%; Activity [2]: 80%

**Q.** What does the source list for `Cc1nc2oc(-c3ccccc3)nn2c(=O)c1CCN1CCCCC1`?
**A.** Activity [3]: 4%; Activity [4]: 76.25%; Activity [5]: 56.16%; Activity [6]: 2.2%; Activity [7]: 1.2%; IC50 [8]: 350 nM; Activity [9]: 0.7 mm; Activity [1]: 83%; Activity [10]: Non-Toxic; Activity [11]: 0.38 mm; Activity [2]: 100%; UI [12]: 7.4

**Q.** For `COc1ccc(N2CCN(CCc3c(C)nc4sc(-c5ccc(Cl)cc5)nn4c3=O)CC2)cc1`, which Activity [1] is on record?
**A.** The Activity was 66%.

**Q.** What about the Activity [2] of the same compound?
**A.** Its Activity is 60%.
